The values that follow come from patent US20130045931A1 (priority 2010, published 2013).

For one assay, the system named is Gram-positive bacteria. The conditions noted are these: some Gram-positive bacteria; cited from earlier work.
The next assay concerns Gram-negative bacteria. The conditions noted are these: cited from earlier work.
Assay [1] has as its system Staphylococcus epidermidis (Isolate, biofilm former). The assay can be described thus: Antibacterial test, clinically relevant strains (Sahly et al. 2003).
Assay [2] concerns Staphylococcus aureus (ATCC 33593, methicillin-resistant). The assay is described as above.
For a further assay, the system named is GXF251L (gastric tumor). The assay can be described thus: Antiproliferative activity, propidium iodide fluorescence assay (Dengler et al. 1995). The format is cell-based, human.
The subject of assay [3] is Staphylococcus lentus (DSM 6672). Nature of the assay: Antibacterial growth inhibition (Lang et al. 2007).
Assay [4] concerns PAXF1657L (pancreatic tumor). The assay can be described thus: Antiproliferative activity, propidium iodide fluorescence assay (Dengler et al. 1995). The format is cell-based, human.
For assay [5], the system named is Xanthomonas campestris (DSM 2405). The format is cell-based.
Assay [6] relates to Propionibacterium acnes (DSM 1897). The assay can be described thus: Antibacterial activity against causative agent of acne vulgaris. The format is cell-based.
In assay [7] the test system is Staphylococcus aureus (ATCC 12600). The assay can be described thus: Antibacterial test, clinically relevant strains (Sahly et al. 2003).
For another assay, the system named is Phytophthora infestans. The format is cell-based. The following applies: Phytophthora infestans (Isolate), 48 hours at 20° C. in the dark.
The test system of assay [8] is Bacillus subtilis (DSM 347). The assay can be described thus: Antibacterial growth inhibition (Lang et al. 2007).
In assay [9] the test system is MAXF401NL (breast cancer). The assay can be described thus: Antiproliferative activity, propidium iodide fluorescence assay (Dengler et al. 1995). The format is cell-based, human.
Another assay deals with LXF529L (lung tumor). Described as above. Type of assay: cell-based, human.
For assay [10], the system named is intestinal tumor cell line HT29. The assay can be described thus: CellTiter-Blue cell viability assay. Type of assay: cell-based, human. The text has this:
(§1) To determine the proliferation and cytotoxicity in respect of the liver tumor cell line HepG2 and the intestinal tumor cell line HT29, the effect on the metabolic activity of the cells was studied by means of the CellTiter-Blue® cell viability assay as described by O'Brien et al. (2000 Investigation of the alamar blue (resazurin) fluorescent dye for the assessment of mammalian cell cytotoxicity. European Journal of Biochemistry 267: 5421-6).
Background: Alamar Blue is a resazurin reagent that responds to reducing activity.

Assay [11] concerns liver tumor cell line HepG2. Nature of the assay: CellTiter-Blue cell viability assay. The format is cell-based, human.
Text: as §1

Assay [12] has as its system Pseudomonas aeruginosa (ATCC 10145). Nature of the assay: Antibacterial test, clinically relevant strains (Sahly et al. 2003). The following applies: biofilm former.

Take `Cc1cc2cc(O)c3c(c2c(O[C@@H]2C[C@H](N(C)C)[C@@H](O)[C@@H](C)O2)c1[C@@H]1C[C@H](N(C)C)[C@@H](O)[C@H](C)O1)C(=O)c1cccc(O)c1C3=O` [benzanthrin A]: in the assay with Gram-positive bacteria, the “activity against Gram-positive bacteria” value is given as “active against some Gram-positive bacteria”. In addition, the “activity against Gram-negative bacteria” value in the assay on Gram-negative bacteria was “not against Gram-negative bacteria”.
On to `Cc1cc2cc(O)c3c(c2c(O[C@@H]2C[C@H](N(C)C)[C@H](O)[C@@H](C)O2)c1[C@@H]1C[C@H](N(C)C)[C@@H](O)[C@H](C)O1)C(=O)c1cccc(O)c1C3=O` [benzanthrin B], for which the “activity against Gram-positive bacteria” value in the assay with Gram-positive bacteria is “active against some Gram-positive bacteria”. Further, the “activity against Gram-negative bacteria” value in the assay with Gram-negative bacteria is given as “not against Gram-negative bacteria”.
The term IC50 denotes the concentration needed to halve the response being measured. A higher IC50 goes with weaker potency in that assay. With mayamycin, the IC50 stood at 310 nM in [1]; 1250 nM in [2]; 200 nM with GXF251L (gastric tumor); 8000 nM in assay [3]; 150 nM in assay [4]; 30000 nM in [5]. Further, the IC50 in assay [6] turned out to be 31200 nM; in [7], 2500 nM; in the assay with Phytophthora infestans it was 15200 nM; in [8] it was 8000 nM; in [9], 290 nM; in the assay with LXF529L (lung tumor), 160 nM. Besides, the IC50 in assay [10] came out at 300 nM; in assay [11], 200 nM; in [12] it was 2500 nM.
